Test results published in ChEMBL document CHEMBL1649532, “Trypanocidal activity of 8-methyl-5'-{[(Z)-4-aminobut-2-enyl]-(methylamino)}adenosine (Genz-644131), an adenosylmethionine decarboxylase inhibitor” (Antimicrob Agents Chemother, 2009).
Converted amounts (≈) assume the structure as drawn. The source made the active and inactive calls. The rule behind the calls is not given here.

Key:
[1] = system: Trypanosoma brucei rhodesiense; experiment: Trypanocidal activity against Trypanosoma brucei rhodesiense KETRI2002 infected in mouse assessed as cure rate at 50 mg/kg, ip BID administered 24 hrs postinfection; assay type: functional; conditions: route intraperitoneal
[2] = system: Trypanosoma brucei rhodesiense; experiment: Trypanocidal activity against Trypanosoma brucei rhodesiense KETRI2002 infected in mouse assessed as average survival time at 25 mg/kg, ip QD administered 24 hrs postinfection; assay type: functional; conditions: route intraperitoneal
[3] = system: Trypanosoma brucei brucei; experiment: Trypanocidal activity against Trypanosoma brucei brucei EATRO infected in mouse assessed as mean survival time at 2.5 mg/kg, ip QD for 4 days; assay type: functional; conditions: route intraperitoneal
[4] = system: Trypanosoma brucei rhodesiense; experiment: Trypanocidal activity against Trypanosoma brucei rhodesiense KETRI2002 infected in mouse assessed as average survival time at 10 mg/kg, ip QD administered 24 hrs postinfection; assay type: functional; conditions: route intraperitoneal
[5] = system: Trypanosoma brucei rhodesiense; experiment: Trypanocidal activity against Trypanosoma brucei rhodesiense KETRI1992 infected in mouse assessed as average survival time at 25 mg/kg, ip BID administered 24 hrs postinfection; assay type: functional; conditions: route intraperitoneal
[6] = system: Trypanosoma brucei rhodesiense; experiment: Trypanocidal activity against Trypanosoma brucei rhodesiense KETRI1992 infected in mouse assessed as average survival time at 25 mg/kg, ip QD administered 24 hrs postinfection; assay type: functional; conditions: route intraperitoneal
[7] = system: Trypanosoma brucei brucei; experiment: Trypanocidal activity against Trypanosoma brucei brucei EATRO infected in mouse assessed as protection against trypanosomal infection at 2.5 mg/kg, ip BID for 4 days; assay type: functional, organism-based; parameters: dose 2.5 mg/kg
[8] = system: Trypanosoma brucei brucei; experiment: Trypanocidal activity against Trypanosoma brucei brucei EATRO infected in mouse assessed as protection against trypanosomal infection at 2 mg/kg, ip QD for 4 days; assay type: functional, organism-based; parameters: dose 2 mg/kg
[9] = system: Trypanosoma brucei brucei; experiment: Trypanocidal activity against Trypanosoma brucei brucei 667 infected in mouse assessed as average day of relapse of trypanosomal infection at 25 mg/kg, ip BID for 14 days; assay type: functional; conditions: route intraperitoneal
[10] = system: Trypanosoma brucei brucei; experiment: Trypanocidal activity against Trypanosoma brucei brucei EATRO after 48 hrs; assay type: functional, organism-based
[11] = system: Trypanosoma brucei rhodesiense; experiment: Trypanocidal activity against Trypanosoma brucei rhodesiense KETRI1992 infected in mouse assessed as cure rate at 50 mg/kg, ip BID administered 24 hrs postinfection; assay type: functional; conditions: route intraperitoneal
[12] = system: Trypanosoma brucei rhodesiense; experiment: Trypanocidal activity against Trypanosoma brucei rhodesiense KETRI2002 infected in mouse assessed as average survival time at 50 mg/kg, ip BID administered 24 hrs postinfection; assay type: functional; conditions: route intraperitoneal
[13] = system: Trypanosoma brucei rhodesiense; experiment: Trypanocidal activity against Trypanosoma brucei rhodesiense KETRI1992 infected in mouse assessed as protection against trypanosomal infection at 25 mg/kg, ip QD administered 24 hrs postinfection; assay type: functional, organism-based; parameters: dose 25 mg/kg
[14] = system: Trypanosoma brucei brucei; experiment: Trypanocidal activity against Trypanosoma brucei brucei EATRO infected in mouse assessed as protection against trypanosomal infection at 10 mg/kg, ip QD for 4 days; assay type: functional, organism-based; parameters: dose 10 mg/kg
[15] = system: Trypanosoma brucei rhodesiense; experiment: Trypanocidal activity against Trypanosoma brucei rhodesiense KETRI1992 infected in mouse assessed as protection against trypanosomal infection at 50 mg/kg, ip BID administered 24 hrs postinfection; assay type: functional, organism-based; parameters: dose 50 mg/kg
[16] = system: Trypanosoma brucei rhodesiense; experiment: Trypanocidal activity against Trypanosoma brucei rhodesiense KETRI2002 infected in mouse assessed as average survival time at 50 mg/kg, ip QD administered 24 hrs postinfection; assay type: functional; conditions: route intraperitoneal
[17] = system: Trypanosoma brucei rhodesiense; experiment: Trypanocidal activity against Trypanosoma brucei rhodesiense KETRI243 after 48 hrs; assay type: functional, organism-based; conditions: KETRI243, 48 h
[18] = system: Trypanosoma brucei rhodesiense; experiment: Trypanocidal activity against Trypanosoma brucei rhodesiense KETRI243 infected in mouse assessed as protection against trypanosomal infection at 25 mg/kg, ip QD administered 24 hrs postinfection; assay type: functional, organism-based; parameters: dose 25 mg/kg
[19] = system: Trypanosoma brucei rhodesiense; experiment: Trypanocidal activity against Trypanosoma brucei rhodesiense KETRI1992 infected in mouse assessed as average survival time at 10 mg/kg, ip BID administered 24 hrs postinfection; assay type: functional; conditions: route intraperitoneal
[20] = system: Trypanosoma brucei brucei; experiment: Trypanocidal activity against Trypanosoma brucei brucei EATRO infected in mouse assessed as mean survival time at 10 mg/kg, ip BID for 4 days; assay type: functional; conditions: route intraperitoneal
[21] = system: Trypanosoma brucei rhodesiense; experiment: Trypanocidal activity against Trypanosoma brucei rhodesiense KETRI243 infected in mouse assessed as average survival time at 25 mg/kg, ip BID administered 24 hrs postinfection; assay type: functional; conditions: route intraperitoneal
[22] = system: Trypanosoma brucei brucei; experiment: Trypanocidal activity against Trypanosoma brucei brucei 667 infected in mouse assessed as average day of relapse of trypanosomal infection at 10 mg/kg, ip BID for 7 days; assay type: functional; conditions: route intraperitoneal
[23] = system: Trypanosoma brucei rhodesiense; experiment: Trypanocidal activity against Trypanosoma brucei rhodesiense KETRI1992 infected in mouse assessed as average survival time at 50 mg/kg, ip QD administered 24 hrs postinfection; assay type: functional; conditions: route intraperitoneal
[24] = system: Trypanosoma brucei rhodesiense; experiment: Trypanocidal activity against Trypanosoma brucei rhodesiense KETRI243 infected in mouse assessed as protection against trypanosomal infection at 50 mg/kg, ip QD administered 24 hrs postinfection; assay type: functional, organism-based; parameters: dose 50 mg/kg
[25] = system: Trypanosoma brucei rhodesiense; experiment: Trypanocidal activity against Trypanosoma brucei rhodesiense KETRI243 infected in mouse assessed as average survival time at 25 mg/kg, ip QD administered 24 hrs postinfection; assay type: functional; conditions: route intraperitoneal
[26] = system: Trypanosoma brucei rhodesiense; experiment: Trypanocidal activity against Trypanosoma brucei rhodesiense KETRI243 infected in mouse assessed as average survival time at 50 mg/kg, ip QD administered 24 hrs postinfection; assay type: functional; conditions: route intraperitoneal
[27] = system: Trypanosoma brucei rhodesiense; experiment: Ratio of Kinact to Kiapp for Trypanosoma brucei rhodesiense AdoMetDC
[28] = system: Trypanosoma brucei brucei; experiment: Trypanocidal activity against Trypanosoma brucei brucei EATRO infected in mouse assessed as mean survival time at 5 mg/kg, ip QD for 4 days; assay type: functional; conditions: route intraperitoneal
[29] = system: Trypanosoma brucei rhodesiense; experiment: Trypanocidal activity against Trypanosoma brucei rhodesiense KETRI2002 infected in mouse assessed as average survival time at 25 mg/kg, ip BID administered 24 hrs postinfection; assay type: functional; conditions: route intraperitoneal
[30] = system: Trypanosoma brucei rhodesiense; experiment: Trypanocidal activity against Trypanosoma brucei rhodesiense KETRI2002 infected in mouse assessed as average survival time at 10 mg/kg, ip BID administered 24 hrs postinfection; assay type: functional; conditions: route intraperitoneal
[31] = system: Trypanosoma brucei brucei; experiment: Trypanocidal activity against Trypanosoma brucei brucei EATRO infected in mouse assessed as protection against trypanosomal infection at 5 mg/kg, ip QD for 4 days; assay type: functional, organism-based; parameters: dose 5 mg/kg
[32] = system: Trypanosoma brucei rhodesiense; experiment: Trypanocidal activity against Trypanosoma brucei rhodesiense KETRI1992 infected in mouse assessed as protection against trypanosomal infection at 50 mg/kg, ip QD administered 24 hrs postinfection; assay type: functional, organism-based; parameters: dose 50 mg/kg

## Cc1nc2c(N)ncnc2n1[C@@H]1O[C@H](CN(C)C/C=C\CN)[C@@H](O)[C@H]1O
[1]
  Activity: 80%
[2]
  MST: 20 days
[3]
  MST: 21 days
[4]
  MST: 16 days
[5]
  MST: 23 days
[6]
  MST: 18.6 days
[7]
  Activity: Active
[8]
  Activity: Active
[9]
  MST: 70.3 days
[10]
  IC50: 0.58 ng/mL (≈ 1.6 nM)
[11]
  Activity: 100%
[12]
  MST: 22 days
[13]
  Activity: inactive
[14]
  Activity: Active
[15]
  Activity: inactive
[16]
  MST: 21 days
[17]
  IC50: 3.75 ng/mL (≈ 10.3 nM)
[18]
  Activity: inactive
[19]
  MST: 20.4 days
[20]
  MST: >35 days
[21]
  MST: 18.75 days
[22]
  MST: 53 days
[23]
  MST: 20.2 days
[24]
  Activity: inactive
[25]
  MST: 14 days
[26]
  MST: 17.2 days
[27]
  Activity: 7.8 min⁻¹ M⁻¹
[28]
  MST: >35 days
[29]
  MST: 19.3 days
[30]
  MST: 21.5 days
[31]
  Activity: Active
[32]
  Activity: inactive
